Results: the SangsterLogP compilation

Tests used:
[1] = method code SF-AS, from DOI: 10.1248/bpb1978.7.120, PMID: 6427444
[2] = method code SF-AS, from DOI: 10.1081/jlc-120022394
[3] = method code SF, from Huang, Q.; Wang, L.; Han, S.; Wang, G.; Gao, H. (1993). Quantitative relation between molecular structures and the hydrophobic parameters of halogenated arenes. Chemical Journal of Chinese …
[4] = method code SF-HPLC, from DOI: 10.1016/0731-7085(91)80215-u, PMID: 1821151; settings: pH 7.4
[5] = method code SF, from DOI: 10.1021/jm00294a005, PMID: 5000561
[6] = not given; remark: listed apart in the source
[7] = method code SF-HPLC, from DOI: 10.1002/jps.10112, PMID: 12115830; settings: pH 7.4
[8] = method code SF-AS, from DOI: 10.1016/s0020-1693(00)85781-3
[9] = method code SF, from DOI: 10.1016/0165-1218(78)90089-7, PMID: 362190
[10] = not given; remark: listed apart in the source
[11] = not given; remark: listed apart in the source
[12] = method code SF-AS, from DOI: 10.1248/cpb.17.2558
[13] = not given; remark: listed apart in the source
[14] = method code SF-HPLC, from DOI: 10.1016/s0006-2952(00)00420-2, PMID: 10974206

## CCCOC(=O)N1C2CN3C4=C(C(=O)C(N)=C(C)C4=O)C(COC(N)=O)C3(OC)C21 (configuration not stated)
[1]
  logP: 1.51

## FC(F)(Cl)C(F)(Cl)Cl
other
  logP: 3.16

## CCOC(=O)C(=Cc1ccc2c(c1)OCO2)NC=O
[2]
  logP: 1.66

## Clc1cccc(Br)c1
[3]
  logP: 3.83

## CCCCC(=O)OCC(c1cncn1C)C(CC)C(=O)OCC1CCCCC1 (configuration not stated)
[4]
  logD: 5.56

## CCCCCOC(=O)N1C2CN3C4=C(C(=O)C(N)=C(C)C4=O)C(COC(N)=O)C3(OC)C21 (configuration not stated)
[1]
  logP: 2.45

## Brc1cccc(Br)c1Br
[3]
  logP: 4.98

## CCC(C(=O)OCc1ccccc1)C(COC(=O)c1cccc(Cl)c1)c1cncn1C (configuration not stated)
[4]
  logD: 5.64

## CCCCC1CC(C(=O)NC(CC(C)O)C2OC(SC)C(O)C(O)C2O)N(C)C1 (configuration not stated)
[5]
  logP: 0.56

## ClC(Cl)=C(c1ccc(Cl)cc1)c1ccc(Cl)cc1
other
  logP: 5.89

## O=C1c2c(O)cccc2C(C(=O)c2ccc3c(c2)OCO3)c2cccc(O)c21
[6]
  logP: 3.68

## CO[C@@H]1[C@@H](O[C@@H]2O[C@H](C)[C@@H](O[C@H]3C[C@@](C)(O)[C@@H](OC(C)=O)[C@H](C)O3)[C@H](N(C)C)[C@H]2O)[C@@H](CC=O)C[C@@H](C)[C@@H](O)/C=C\C=C/C[C@@H](C)OC(=O)C[C@H]1O
[5]
  logP: 0.88

## Clc1ccccc1Br
[3]
  logP: 3.83

## CC(O)C(C)SSc1ncc[nH]1 (configuration not stated)
[7]
  logD: 1.39

## CC(=O)c1ccc2c(c1)COCCOCCOCCOCCOCCOC2
[8]
  logP: -0.05

## CCC(=O)O[C@H]1[C@H](C)O[C@@H](O[C@H]2[C@H](N(C)C)[C@@H](O)[C@H](O[C@H]3[C@@H](CC=O)C[C@@H](C)[C@@H](O)/C=C/C=C/C[C@@H](C)OC(=O)C[C@@H](O)[C@@H]3OC)O[C@@H]2C)C[C@@]1(C)O
[5]
  logP: 1.38

## C=CCOCC(O)Cn1ccnc1[N+](=O)[O-] (configuration not stated)
[9]
  logP: 0.3

## Brc1cccnc1
[10]
  logP: 1.5

## CN(C)c1cccc([N+](=O)[O-])c1
[11]
  logP: 2.16

## CCCCCCCCCOC(=O)N1[C@H]2[C@@H]1CN1C3=C(C(=O)C(N)=C(C)C3=O)[C@@H](COC(N)=O)[C@@]21OC
[1]
  logP: 3.56

## CCOC(=O)C(=Cc1cccc(Cl)c1)NC=O
[2]
  logP: 2.51

## COC12C(COC(N)=O)C3=C(C(=O)C(C)=C(N)C3=O)N1CC1C2N1C(=O)Cc1ccccc1 (configuration not stated)
[1]
  logP: 1.54

## CCC(C(=O)OCc1ccccc1)C(COC(=O)c1ccccc1)c1cncn1C (configuration not stated)
[4]
  logD: 4.57

## COC12C(COC(N)=O)C3=C(C(=O)C(C)=C(N)C3=O)N1CC1C2N1C(=O)OC1CCC2=CCC3C(CCC4(C)C(C(C)CCCC(C)C)CCC34)C2(C)CC1 (configuration not stated)
[1]
  logP: 3.88

## O=Cc1cccnc1
[10]
  logP: 0.29

## Nc1cccnc1
[10]
  logP: 0.05

## NS(=O)(=O)c1ccc(Cl)c([N+](=O)[O-])c1
[12]; pH 2.0
  logD: 1.91

## Cc1cccc(S(N)(=O)=O)c1
[12]; pH 2.0
  logD: 0.85

## O=C1c2c(O)cccc2C(C(=O)c2ccc(O)c(O)c2)c2cccc(O)c21
[6]
  logP: 2.79

## CCCCC(=O)OCC(c1cncn1C)C(CC)C(=O)OCc1ccccc1 (configuration not stated)
[4]
  logD: 4.43

## Brc1ccc(Br)c(Br)c1
[3]
  logP: 4.98

## NS(=O)(=O)c1ccc([N+](=O)[O-])c(C(F)(F)F)c1
[12]; pH 2.0
  logD: 1.73

## CC[C@H]1OC(=O)[C@H](C)[C@@H](O[C@H]2C[C@@](C)(OC)[C@@H](O)[C@H](C)O2)[C@H](C)[C@@H](O[C@@H]2O[C@H](C)C[C@H](N(C)C)[C@H]2O)[C@](C)(O)C[C@@H](C)C(N)[C@H](C)[C@H]2OC(=O)O[C@@]21C (some centres not stated)
[13]
  logP: 2.92

## ClC1=C(Cl)C(Cl)(Cl)C(Cl)=C1Cl
other
  logP: 5.04

## CCOC(=O)C(=Cc1ccccc1Cl)NC=O
[2]
  logP: 2.41

## Brc1cc(Br)cc(Br)c1
[3]
  logP: 4.98

## CCC1OC(=O)CC(O)C(C)C(OC2OC(C)C(OC3C[C@@](C)(O)C(O)C(C)O3)C(N(C)C)C2O)C(CC=O)CC(C)C(=O)C=CC(C)=CC1COC1OC(C)C(O)C(OC)C1OC (some centres not stated)
[13]
  logP: 1.63

## C1CCCCCC2OC2CCCC1 (configuration not stated)
other
  logP: 4.7

## CO[C@@H]1[C@@H](O[C@@H]2O[C@H](C)[C@@H](O[C@H]3C[C@@](C)(O)[C@@H](OC(=O)CC(C)C)[C@H](C)O3)[C@H](N(C)C)[C@H]2O)[C@@H](CC=O)C[C@@H](C)C(=O)/C=C/C2OC2C[C@@H](C)OC(=O)C[C@H]1OC(C)=O (some centres not stated)
[13]
  logP: 3.04

## COC12C(COC(N)=O)C3=C(C(=O)C(C)=C(N)C3=O)N1CC1C2N1C(=O)OCc1ccccc1 (configuration not stated)
[1]
  logP: 2.05

## CC(C)(C)SSc1ncc[nH]1
[7]
  logD: 2.56

## O=[N+]([O-])c1ccc(Cl)cc1
[11]
  logP: 2.45

## CN(C)CCCNc1c2ccccc2[n+]([O-])c2cccc([N+](=O)[O-])c12
[14]
  logP: 3.1

## CCCC(=O)O[C@H]1[C@H](C)O[C@@H](O[C@H]2[C@H](N(C)C)[C@@H](O)[C@H](O[C@H]3[C@@H](CC=O)C[C@@H](C)[C@@H](O)/C=C/C=C/C[C@@H](C)OC(=O)C[C@@H](O)[C@@H]3OC)O[C@@H]2C)C[C@@]1(C)O
[5]
  logP: 1.88

## CCC(=O)OCC(c1cncn1C)C(CC)C(=O)OCc1ccccc1 (configuration not stated)
[4]
  logD: 3.3

## CCOC(=O)C(=CC=Cc1ccccc1)NC=O
[2]
  logP: 2.91

## Brc1ccncc1
[10]
  logP: 1.49

## Cc1ccccc1S(N)(=O)=O
[12]; pH 2.0
  logD: 0.84

## CCC(C(=O)OCc1ccccc1)C(COC(C)=O)c1cncn1C (configuration not stated)
[4]
  logD: 2.87

## CO[C@H]1C[C@H](O[C@H]2[C@H](C)[C@@H](O[C@@H]3O[C@H](C)C[C@H](N(C)C)[C@H]3O)[C@@H](C)C[C@@]3(CO3)C(=O)[C@H](C)[C@@H](O)[C@@H](C)[C@@H](C)OC(=O)[C@@H]2C)O[C@@H](C)[C@@H]1O
[13]
  logP: 1.69

## CCSSc1ncc[nH]1
[7]
  logD: 2.13

## CCC1OC(=O)CC(O)C(C)C(O[C@H]2OC(C)C(O)C(N(C)C)C2O)C(CCN2CC(C)CC(C)C2)CC(C)C(=O)C=CC(C)=CC1COC1OC(C)C(O)C(OC)C1OC (some centres not stated)
[13]
  logP: 3.8

## COc1cccc([N+](=O)[O-])c1
[11]
  logP: 2.09

## CCOC(=O)C(=Cc1ccoc1)NC=O
[2]
  logP: 2.08

## CC[C@H]1OC(=O)C[C@@H](O)[C@H](C)[C@@H](O[C@@H]2O[C@H](C)[C@@H](O)[C@H](N(C)C)[C@H]2O)[C@@H](CC=O)C[C@@H](C)C(=O)/C=C/C(C)=C/[C@@H]1CO
[13]
  logP: 0.99

## CCCC(=O)OC1C(C)OC(OC2C(C)OC(OC3C(CC=O)CC(C)C(O)/C=C\C=C\CC(C)OC(=O)CC(OC(C)=O)C3OC)C(O)C2N(C)C)CC1(C)O (configuration not stated)
[5]
  logP: 1.88

## NC(=O)/C(=C\c1ccc([N+](=O)[O-])o1)c1ccco1
[9]
  logP: 0.15

## O=C(O)c1ccc2c(c1)COCCOCCOCCOCCOCCOC2
[8]
  logP: -0.28

## CC(C)(C)c1ccncc1
[10]
  logP: 2.42

## CO[C@@H]1[C@@H](O[C@@H]2O[C@H](C)[C@@H](O[C@H]3C[C@@](C)(O)[C@@H](OC(C)=O)[C@H](C)O3)[C@H](N(C)C)[C@H]2O)[C@@H](CC=O)C[C@@H](C)[C@@H](O)/C=C/C=C/C[C@@H](C)OC(=O)C[C@H]1OC(C)=O
[5]
  logP: 0.88

## O=C1c2c(O)cccc2C(C(=O)c2ccc(O)cc2)c2cccc(O)c21
[6]
  logP: 3.11

## c1ccc2c(c1)COCCOCCOCCOCCOC2
[8]
  logP: 0.7

## c1ccc(CSSc2ncc[nH]2)cc1
[7]
  logD: 3.05

## O=C1c2c(O)cccc2C(C(=O)c2ccccc2)c2cccc(O)c21
[6]
  logP: 3.81

## CCOC(=O)C(=Cc1ccccc1)NC=O
[2]
  logP: 2.48

## CCCCCCCCOC(=O)COc1ccc(Cl)cc1Cl
other
  logP: 5.86

## C[N+](C)([O-])CCCNc1c2ccccc2nc2cccc([N+](=O)[O-])c12
[14]
  logP: 1.4

## CN(C)CCCNc1c2ccccc2nc2ccccc12
[14]
  logP: 3.6

## CC(C)(C)c1ccc2c(c1)COCCOCCOCCOCCOCc1cc(C(C)(C)C)ccc1COCCOCCOCCOCCOC2
[8]
  logP: 3.32

## O=C1c2c(O)cccc2C(C(=O)c2cc(O)c(O)c(O)c2)c2cccc(O)c21
[6]
  logP: 2.44

## CCC(C)SSc1ncc[nH]1 (configuration not stated)
[7]
  logD: 2.76

## CN(C)CCCNc1c2ccccc2[n+]([O-])c2ccccc12
[14]
  logP: 2.5

## C[N+](C)([O-])CCCNc1c2ccccc2nc2ccccc12
[14]
  logP: 0.4

## CN(C)CCCNc1c2ccccc2nc2cccc([N+](=O)[O-])c12
[14]
  logP: 3.8

## O=C1c2c(O)cccc2C(C(=O)c2ccc(OCc3ccccc3)cc2)c2cccc(O)c21
[6]
  logP: 4.22

## O=[N+]([O-])c1ccccc1Br
[11]
  logP: 2.5

## c1ccc2c(c1)COCCOCCOCCOCCOCCOC2
[8]
  logP: 0.15

## Cc1nc([N+](=O)[O-])cn1CCO
[9]
  logP: -0.59

## Nc1nnc(S(N)(=O)=O)s1
[12]; pH 5.5
  logD: -0.9

## Cn1cnc([N+](=O)[O-])c1Cl
[9]
  logP: 0.3

## CCN(CC)CCCNC(=O)C(=O)NN=Cc1ccc([N+](=O)[O-])o1
[9]
  logP: -1.12

## O=[N+]([O-])c1cccc(Cl)c1
[11]
  logP: 2.59
